Laboratory results: patent publication US20040002842A1, “Methods and systems for analyzing complex biological systems” (priority 2001, published 2004)

Columns and labels:
[1] = test system: Arabidopsis thaliana plants; test: SOA1 gene expression analysis (60mer microarray, 6200 genes) of herbicide-treated tissue; settings: SOA1 profiles
[2] = test system: Arabidopsis thaliana plants; test: SOA1 phenotypic analysis of herbicide-treated plants (incl. MIC/Tmic); type: in vivo; settings: herbicide-treated plants

SMILES: COC(=O)c1cc(Oc2ccc(Cl)cc2Cl)ccc1[N+](=O)[O-] [Bifenox]
- gene expression profile correlation to acifluorfen (r) [1]: 0.151
- characteristic symptoms (morphological phenotype) [2]: Necrotic leaf flecks
